The record followed here is patent publication US20150087722A1, “TREATMENT FOR BREAST TUMOR CELL METASTASIS” (China Medical University, priority 2012, published 2015).

Experiment [1] deals with NF-κB in MDA-MB-231 cells. Description: NF-κB immunofluorescence staining. In kind it is cell-based, human. To be noted: MDA-MB-231, FIG. 7. As to the method: FIG. 7 illustrates photographs taken at a 200× field under a fluorescence microscope, where a primary antibody NF-κB was used and the cells were stained through the immunofluenrence staining method. In the immunofluenrence staining, the compound II in different concentrations were used to stimulate MDA-MB-231 cells, and a primary antibody NF-κB (with a dilution ratio of 1:250) was added, and then the cells were cultured at an atmosphere of 5% CO2 for 2 h at 37° C. Subsequently a fluorescence secondary antibody (with a dilution ratio of 1:200) was added, and finally DAPI (with a dilution ratio of 1:1000) was added. The cells were stored with protect from light at the room temperature for 5 min. The cells were observed under the fluorescence microscope and a photograph (200×) of the cells was taken. Finally, the cells were mounted with the mounting gel.

For experiment [2], the system named is breast tumor cells MDA-MB-231. Put plainly: wound scratching assay (cell migration). The experiment is classed as cell-based, human. As to the method:
Referring to FIG. 14, the wound scratching assay was performed to analysis effect of the compound II in different doses on tumor cell metastasis. In the wound scratching assay for observing cell migration, the cells MDA-MB-231 (3×10^5) were planted in a 12-well plate, and the next day the cells were washed with PBS twice. The original culture medium then was replaced by 1% FBS cell culture medium. The next day a space was scratched at the bottom of the well. The cell culture medium was removed and the cells were washed with PBS twice. 1% FBS cell culture medium and the compound II of different concentrations were added and photographs were taken after 0, 12, 24 and 36 h so as to observe migration of cells. After the reaction, the cells were fixed for 30 min using 75% ice alcohol. After the alcohol was completely volatilized, the cells were stained with Giemsa Stain. The migration number of cells was counted in three random fields (200×) under the microscope (Lin et al., 2008). […] After the breast tumor cells were treated for 0, 12, 24 and 36 h, the quantitative result of effect of the compound II on metastasis of breast tumor cells MDA-MD-231 was observed, and the data results were represented by mean±SD values, where n=3.

Experiment [3] concerns breast tumor cells MDA-MB-453. Description: MTT cell viability assay. In kind it is cell-based, human. To be noted: for cell viability: FIG. 24. As to the method: The breast tumor cells (MDA-MB-231, MDA-MB-435, MDA-MB-453, MDA-MB-468 and MCF-7) were commercially obtained from the bioresource collection and research center (BCRC), and were cultured in a 10% FBS-DMEM culture medium (i.e., a DMEM culture medium including 10% fetal bovine serum (FBS)). The human breast cell MCF-10A was cultured in a 5% FBS-DMEM culture medium (including F12, insulin, hydrocortisol and epidermal growth factor). An environment of 5% CO2 was kept in the incubator at a constant temperature of 37° C. When a certain number of cells were generated in culture, the culture medium was removed after being centrifuged for 10 min at a rate of 900 rpm. The culture medium was replaced in 24 h before the experiment, and the number of cells was counted by a hemocytometer.
The cell viability was determined by a method of […] (MTT assay). The test method for assaying cell viability refers to steps provided by Parada-Turska et al.
The breast tumor cells MDA-MB-231 were inoculated in a 24-well plate (2.5×10^5 cells/well), and the next day after cells were adhered to the wall of the plate, the cells were washed with PBS. 1% FBS-DMEM culture medium was then added so as to synchronize cells. The next day compound II having different concentrations were added into the wells, and the cells were subsequently cultured in an atmosphere of 5% CO2 at 37° C. for 24 h. The cells were washed with PBS once, and 400 μl MTT agent was added in each well so as to react for 4 h. Then 400 μl 10% SDS was added in each well so as to react for 12 h. 200 μl supernatant was taken from the well and then added into a 96-well microplate, so as to measure the absorbance at 570 nm.
In the MTT assay, the MDA-MB-453 cells were cultured in a culture medium including 5% fetal bovine serum-DMEM F12/insulin/hydrocortisol/epidermal growth factor. Then the cells were cultured at an atmosphere of 5% CO2 in an incubator at a constant temperature of 37° C. When a certain number of cells were generated in culture, the culture medium was removed after being centrifuged at 900 rmp for 10 min. The culture medium was replaced in 24 h before the experiment, and the number of cells was counted by a hemocytometer.

For experiment [4], the system named is MMP-9 and MMP2 in human normal breast cells MCF-10A stimulated by TNF-α/TGF-β. Put plainly: Zymography enzyme activity assay. The experiment is classed as cell-based. An excerpt: Referring to FIG. 8B, the Zymography enzyme activity assay was used to detect effect of the compound II in different doses on enzyme activities of the MMP-9, MMP2 and uPA in the breast tumor cells MDA-MB-231. Moreover, referring to FIG. 9, the Zymography enzyme activity assay was used to detect effect of the compound I on enzyme activities of the MMP-9 and MMP2 in the human normal breast cells MCF-10A stimulated by TNF-α/TGF-β. In the Zymography enzyme activity assay, the cells (1×10^6) were planted in a 6-well plate. The next day after the cells were adhered to the wall, the cells were cultured in a serum free DMEM culture medium at an atmosphere of 5% CO2 in an incubator at 37° C. for 24 h. The compound II in different doses were added into the DMEM culture medium. In other test groups, the compound I was added, TNF-α/TGF-β were added or the compound I and TNF-α/TGF-β were added into the DMEM culture medium, wherein the concentration of compound I and TNF-α/TGF-β were 2 mM and 10 ng/ml, respectively. The cells were cultured in the culture medium for 2 h and then washed with PBS. The cell culture medium was putted into a microcentrifuge tube and centrifuged for 10 min at 1500 rpm. The supernatant was taken to perform a protein gel electrophoresis (SDS-PAGE), so as to separate the proteins. […]

As usually defined, the IC50 is the concentration that inhibits the measured activity by half. As to `COC1=C(OC)C(=O)C(C)=C(C)C1=O` [compound II], the “expression of NF-κB” value in experiment [1] is “inhibit expression of NF-κB”. Besides, in experiment [2] (0.5 μM, in 12-24 h), the “breast tumor cells migrated” value is reported as 60-70%. The “migration capability of breast tumor cells” value in experiment [2] (concentration above 1 μM) was “significantly inhibited”. The cell viability entry in experiment [3] (40 μM with 2.5 mM antioxidant NAC) is given as “recovered”; in experiment [3] (40 μM, compound only), “half of that in the control group”. This compound registered a concentration for half-maximal inhibition (IC50) in experiment [3] (Homo sapiens, viability, MDA-MB-453 cell strain, Table 1) of 36.7 µM. In experiment [3] (MDA-MB-453, with increasing concentration, FIG. 21), the “viability of breast tumor cells” value is recorded as “inhibited significantly”.
As to `COC1=C(OC)C(=O)C(C)=CC1=O` [compound I], the “enzyme activities of MMP-2 and MMP-9” value in experiment [4] (compound alone) was “decreased”; in experiment [4] (with TNF-α/TGF-β simultaneously), “recovered the increase caused by TNF-α/TGF-β stimulating”.
